Results published in patent US20230174584A1, “Antibiotic Compounds” (priority 2019, published 2023).
≈ marks a conversion by molar mass, not a printed value.

Key:
[1] = tested on: panel of 31 vancomycin-resistant E. faecium strains; assay: MIC assay, MIC50/MIC90 over panel; type: cell-based, Enterococcus faecium; conditions: panel of 31 vancomycin-resistant E. faecium strains
Experimental: (§1) The antibacterial activity of the compounds was tested against a panel of bacteria, including Gram-positive bacteria (S. aureus ATCC29213, S. aureus USA300, S. aureus LIM-2, NR-45881, S. aureus HIP13419, NR-46413, E. faecium E155, E. faecium E7314, E. faecium E980, E. faecalis E1246, E. faecalis E7406 and S. pneumonia 153). The antibacterial activity of the compounds was further tested against S. aureus NY-155, NR-46236, S. aureus HIP12864, NR-46074, S. aureus 880 (BR-VRSA), NR-49120, E. faecalis E1246, E. faecalis E7604, as well as some Gram-negative bacteria (Escherichia coli and Klebsiella pneumoniae). Minimum inhibitory concentrations (MICs) in μg/mL were performed according to the CLSI guidelines. From glycerol stocks, bacterial strains were cultured on blood agar plates and incubated at 37° C. for 18 h. A single colony was transferred to tryptic soy broth (TSB) with 0.002% polysorbate 80 (p80). For the Enterococcus, VISA and VRSA strains, the cultures were grown at 37° C. until the optical density of the suspension reached a level equivalent to the 0.5 McFarland standard. The bacterial suspensions were diluted in TSB with 0.002% p80 to reach a bacterial cell density of 10^6 CFU/mL. In case of the other (vancomycin-sensitive) S. aureus strains, the direct colony suspension method was used. For these strains, after transfer of the colonies to TSB with 0.002% p80, they were immediately diluted to 10^6 CFU/mL, instead of incubated prior to this dilution. In the case of S. pneumonia, direct colony suspension was used by immediately suspending multiple colonies from fresh blood agar plates in TSB+0.002% p80 to an OD600 of 0.5 and subsequent dilution to 10^6 CFU mL^−1 in TSB+0.002% p80+5% lysed horse blood. Antibiotic dilutions for this strains were also made in TSB+0.002% p80+5% lysed horse blood. Both agar and microplates containing S. pneumonia were incubated at 37° C. with 5% CO2 for 24 h with constant shaking (600 rpm). […] The cultures were grown to exponential phase (OD600=0.5) at 37° C. […] In polypropylene 96-well microtiter plates, test compounds were added in biological triplicates and serial diluted 2-fold by transfer and mixing from one well to the next to achieve a final volume of 50 μL per well. An equal volume of bacterial suspension (10^6 CFU mL^−1) was added to the wells. The plates were sealed with breathable membranes and incubated at 37° C. for 24 h with constant shaking (600 rpm). In polypropylene microtiter plates, 100 μL of the test compounds was added to the first row in biological triplicates, and 50 μL of media was added to the other wells. The compounds were subjected to serial dilution by transfer and mixing of 50 μL from one well to the next. Subsequently, 50 μL of bacterial suspension (10^6 CFU/mL) was added to the wells. The plates were sealed with breathable membranes and incubated at 37° C. for 24 h with constant shaking (600 rpm). Positive growth control consisted of wells with bacterial suspension and without antibiotic. Negative growth control consisted of solely media without bacterial suspension or antibiotic. The MICs were determined from the median of a minimum of triplicates.

E. faecium E7464 = assay: MIC assay; type: cell-based, Enterococcus faecium; conditions: E. faecium E7464, VanB
Experimental: as §1

E. faecium E2297 = assay: MIC assay; type: cell-based, Enterococcus faecium; conditions: E. faecium E2297, VanA
Experimental: as §1

E. faecium E980 = assay: MIC assay; type: cell-based, Enterococcus faecium
Experimental: as §1

E. faecium E7413 = assay: MIC assay; type: cell-based, Enterococcus faecium; conditions: E. faecium E7413, VanA
Experimental: as §1

E. faecium E0745 = assay: MIC assay; type: cell-based, Enterococcus faecium; conditions: E. faecium E0745, VanA
Experimental: as §1

E. faecium E0506 = assay: MIC assay; type: cell-based, Enterococcus faecium; conditions: E. faecium E0506, VanA
Experimental: as §1

E. faecium E0300 = assay: MIC assay; type: cell-based, Enterococcus faecium; conditions: E. faecium E0300, VanA
Experimental: as §1

E. faecium E0013 = assay: MIC assay; type: cell-based, Enterococcus faecium; conditions: E. faecium E0013, VanA
Experimental: as §1

E. faecium E0333 = assay: MIC assay; type: cell-based, Enterococcus faecium; conditions: E. faecium E0333, VanA
Experimental: as §1

E. faecium E7401 = assay: MIC assay; type: cell-based, Enterococcus faecium; conditions: E. faecium E7401, VanB
Experimental: as §1

E. faecium EO321 = assay: MIC assay; type: cell-based, Enterococcus faecium; conditions: E. faecium EO321, VanA
Experimental: as §1

E. faecium E7403 = assay: MIC assay; type: cell-based, Enterococcus faecium; conditions: E. faecium E7403, VanB
Experimental: as §1

E. faecium E8218 = assay: MIC assay; type: cell-based, Enterococcus faecium; conditions: E. faecium E8218, VanB
Experimental: as §1

E. faecium E1130 = assay: MIC assay; type: cell-based, Enterococcus faecium; conditions: E. faecium E1130, VanA
Experimental: as §1

E. faecium E8237 = assay: MIC assay; type: cell-based, Enterococcus faecium; conditions: E. faecium E8237, VanA
Experimental: as §1

E. faecium E7424 = assay: MIC assay; type: cell-based, Enterococcus faecium; conditions: E. faecium E7424, VanB
Experimental: as §1

E. faecium E7329 = assay: MIC assay; type: cell-based, Enterococcus faecium; conditions: E. faecium E7329, VanA
Experimental: as §1

E. faecium E6016 = assay: MIC assay; type: cell-based, Enterococcus faecium; conditions: E. faecium E6016, VanA
Experimental: as §1

E. faecium E8235 = assay: MIC assay; type: cell-based, Enterococcus faecium; conditions: E. faecium E8235, VanB
Experimental: as §1

E. faecalis E1246 = assay: MIC assay; type: cell-based, Enterococcus faecalis
Experimental: as §1

[2] = E. faecalis E1246 VRE (VanA), Table 7
[3] = E. faecalis E1246 VRE (vanA), Table 9

With `CCCCCCCNC(N)=Nc1ccc(CN[C@@]2(C)C[C@H](O[C@H]3[C@H](Oc4c5cc6cc4Oc4ccc(cc4Cl)[C@@H](O)[C@@H](NC(=O)[C@@H](CC(C)C)NC)C(=O)N[C@@H](CC(N)=O)C(=O)N[C@H]6C(=O)N[C@H]4C(=O)N[C@H](C(=O)N[C@H](C(=O)O)c6cc(O)cc(O)c6-c6cc4ccc6O)[C@H](O)c4ccc(c(Cl)c4)O5)O[C@H](CO)[C@@H](O)[C@@H]3O)O[C@@H](C)[C@H]2O)cc1` [Compound 5] as the compound, how does the MIC50 [1] read?
Its MIC50 is 1 µg/mL (≈ 0.59 µM).

And the MIC90 [1]?
Its MIC90 is 8 µg/mL (≈ 4.72 µM).

What about the MIC (E. faecium E7464) of the same compound?
Its MIC is ≤0.008 µg/mL.

What about the MIC (E. faecium E2297) of the same compound?
Its MIC is 2 µg/mL (≈ 1.18 µM).

What about the MIC (E. faecium E980; E. faecium E980 VSE) of the same compound?
The MIC was ≤0.007812 µg/mL.

And the MIC (E. faecium E7413)?
The MIC was 8 µg/mL (≈ 4.72 µM).

What about the MIC (E. faecium E0745) of the same compound?
Its MIC is 1 µg/mL (≈ 0.59 µM).

What about the MIC (E. faecium E0506) of the same compound?
The MIC was 2 µg/mL (≈ 1.18 µM).

And the MIC (E. faecium E0300)?
Its MIC is 4 µg/mL (≈ 2.36 µM).

And the MIC (E. faecium E0013)?
The MIC was 4 µg/mL (≈ 2.36 µM).

What about the MIC (E. faecium E0333) of the same compound?
The MIC was 8 µg/mL (≈ 4.72 µM).

What about the MIC (E. faecium E7401) of the same compound?
The MIC was ≤0.008 µg/mL.

What about the MIC (E. faecium EO321) of the same compound?
Its MIC is 8 µg/mL (≈ 4.72 µM).

And the MIC (E. faecium E7403)?
The MIC was ≤0.008 µg/mL.

What about the MIC (E. faecium E8218) of the same compound?
The MIC was ≤0.008 µg/mL.

And the MIC (E. faecium E1130)?
The MIC was ≤0.008 µg/mL.

And the MIC (E. faecium E8237)?
The MIC was 8 µg/mL (≈ 4.72 µM).

And the MIC (E. faecium E7424)?
The MIC was ≤0.008 µg/mL.

What about the MIC (E. faecium E7329) of the same compound?
The MIC was ≤0.008 µg/mL.

What about the MIC (E. faecium E6016) of the same compound?
Its MIC is 1 µg/mL (≈ 0.59 µM).

And the MIC (E. faecium E8235)?
Its MIC is ≤0.008 µg/mL.

What about the MIC (E. faecalis E1246; [2]) of the same compound?
Its MIC is 16 µg/mL (≈ 9.44 µM).

And the MIC (E. faecalis E1246; [3])?
Its MIC is 16 µg/mL (≈ 9.44 µM).

Which results are given for `CN[C@H](CC(C)C)C(=O)N[C@H]1C(=O)N[C@@H](CC(N)=O)C(=O)N[C@H]2C(=O)N[C@H]3C(=O)N[C@H](C(=O)N[C@H](C(=O)O)c4cc(O)cc(O)c4-c4cc3ccc4O)[C@H](O[C@H]3C[C@](C)(N)[C@@H](O)[C@H](C)O3)c3ccc(c(Cl)c3)Oc3cc2cc(c3O[C@@H]2O[C@H](CO)[C@@H](O)[C@H](O)[C@H]2O[C@H]2C[C@](C)(NCc3ccc(-c4ccc(Cl)cc4)cc3)[C@@H](O)[C@H](C)O2)Oc2ccc(cc2Cl)[C@H]1O` [Oritavancin]?
MIC (E. faecium E980; Enterococcus faecium, E980): 0.0625 µg/mL (≈ 0.0349 µM); MIC (E. faecalis E1246; [3]): 1 µg/mL (≈ 0.558 µM); MIC (E. faecalis E1246; Enterococcus faecalis, VRE): 1 µg/mL (≈ 0.558 µM)

How did the MIC50 [1] turn out when `CCCCCCCCCNC(N)=Nc1ccc(CN[C@@]2(C)C[C@H](O[C@H]3[C@H](Oc4c5cc6cc4Oc4ccc(cc4Cl)[C@@H](O)[C@@H](NC(=O)[C@@H](CC(C)C)NC)C(=O)N[C@@H](CC(N)=O)C(=O)N[C@H]6C(=O)N[C@H]4C(=O)N[C@H](C(=O)N[C@H](C(=O)O)c6cc(O)cc(O)c6-c6cc4ccc6O)[C@H](O)c4ccc(c(Cl)c4)O5)O[C@H](CO)[C@@H](O)[C@@H]3O)O[C@@H](C)[C@H]2O)cc1` [Compound 7] was run?
The MIC50 was 0.125 µg/mL (≈ 0.0726 µM).

What about the MIC90 [1] of the same compound?
Its MIC90 is 1 µg/mL (≈ 0.58 µM).

What about the MIC (E. faecium E7464) of the same compound?
Its MIC is ≤0.008 µg/mL.

And the MIC (E. faecium E2297)?
Its MIC is 0.5 µg/mL (≈ 0.29 µM).

And the MIC (E. faecium E980; E. faecium E980 VSE)?
Its MIC is 0.03125 µg/mL (≈ 0.0181 µM).

What about the MIC (E. faecium E7413) of the same compound?
Its MIC is 2 µg/mL (≈ 1.16 µM).

And the MIC (E. faecium E0745)?
The MIC was 0.125 µg/mL (≈ 0.0726 µM).

What about the MIC (E. faecium E0506) of the same compound?
The MIC was 0.5 µg/mL (≈ 0.29 µM).

What about the MIC (E. faecium E0300) of the same compound?
Its MIC is 0.5 µg/mL (≈ 0.29 µM).

And the MIC (E. faecium E0013)?
Its MIC is 0.5 µg/mL (≈ 0.29 µM).

And the MIC (E. faecium E0333)?
Its MIC is 1 µg/mL (≈ 0.58 µM).

What about the MIC (E. faecium E7401) of the same compound?
Its MIC is ≤0.008 µg/mL.

What about the MIC (E. faecium EO321) of the same compound?
Its MIC is 1 µg/mL (≈ 0.58 µM).

And the MIC (E. faecium E7403)?
Its MIC is ≤0.008 µg/mL.

And the MIC (E. faecium E8218)?
Its MIC is ≤0.008 µg/mL.

What about the MIC (E. faecium E1130) of the same compound?
The MIC was ≤0.008 µg/mL.

And the MIC (E. faecium E8237)?
Its MIC is 1 µg/mL (≈ 0.58 µM).

What about the MIC (E. faecium E7424) of the same compound?
Its MIC is ≤0.008 µg/mL.

What about the MIC (E. faecium E7329) of the same compound?
Its MIC is ≤0.008 µg/mL.

What about the MIC (E. faecium E6016) of the same compound?
The MIC was 0.25 µg/mL (≈ 0.145 µM).

What about the MIC (E. faecium E8235) of the same compound?
Its MIC is ≤0.008 µg/mL.

And the MIC (E. faecalis E1246; [2])?
Its MIC is 2 µg/mL (≈ 1.16 µM).

And the MIC (E. faecalis E1246; [3])?
Its MIC is 2 µg/mL (≈ 1.16 µM).
